The record followed here is ChEMBL document CHEMBL5331093, “Identification of "dual-site"-binding diarylpyrimidines targeting both NNIBP and the NNRTI adjacent site of the HIV-1 reverse transcriptase” (Eur J Med Chem, 2023).

The nature of series [1]: Selectivity index, ratio of CC50 cytotoxicity against human MT4 cells to EC50 for anti-HIV activity against NNRTI-resistant HIV-1 RES056 harboring RT K103N/Y181C double mutant infected in human MT4 cells. The settings on record: read-out: Ratio CC50/EC50. In kind it is toxicity, cell-based.
Series [2] is described as follows: Cytotoxicity against human MT4 cells assessed as reduction in cell viability incubated for 5 days by MTT assay. The settings on record: time 5 day. The series is classed as toxicity, cell-based.
The test system of series [3] is Human immunodeficiency virus 1. The series is described as follows: Anti-HIV activity against wild type HIV-1 IIIB infected in human MT4 cells assessed as inhibition of virus-induced cytopathic effect incubated for 5 days by MTT assay. In kind it is functional, organism-based. The settings on record: Human immunodeficiency virus 1, IIIB, MT4, 120 h.
Series [4] deals with Human immunodeficiency virus 1. The series is described as follows: Anti-HIV activity against NNRTI-resistant HIV-1 RES056 harboring RT K103N/Y181C double mutant infected in human MT4 cells assessed as inhibition of virus-induced cytopathic effect incubated for 5 days by MTT assay. The series is classed as functional, organism-based. As to conditions: Human immunodeficiency virus 1, RES056, MT4, 120 h.

A short description of series [5]: Resistance factor, ratio of EC50 for anti-HIV activity against NNRTI-resistant HIV-1 RES056 harboring RT K103N/Y181C double mutant infected in human MT4 cells to EC50 for anti-HIV activity against wild type HIV-1 IIIB infected in human MT4 cells. In kind it is functional.
A short description of series [6]: Selectivity index, ratio of CC50 cytotoxicity against human MT4 cells to EC50 for anti-HIV activity against wild type HIV-1 IIIB infected in human MT4 cells. The series is classed as toxicity, cell-based. The settings on record: read-out: Ratio CC50/EC50.
The subject of series [7] is Human immunodeficiency virus 1. Kind of series: Anti-HIV activity against NNRTI-resistant HIV-1 harboring RT Y181C mutant infected in human MT4 cells assessed as inhibition of virus-induced cytopathic effect incubated for 5 days by MTT assay. As to conditions: Human immunodeficiency virus 1, MT4, 120 h. The series is classed as functional, organism-based.
The subject of series [8] is Human immunodeficiency virus 1. Kind of series: Anti-HIV activity against NNRTI-resistant HIV-1 harboring RT L100I mutant infected in human MT4 cells assessed as inhibition of virus-induced cytopathic effect incubated for 5 days by MTT assay. In kind it is functional, organism-based. As to conditions: Human immunodeficiency virus 1, MT4, 120 h.
Series [9] addresses Human immunodeficiency virus type 1 reverse transcriptase (Human immunodeficiency virus 1, UniProt Q72547). Kind of series: Inhibition of wild type recombinant HIV-1 reverse transcriptase assessed as reduction of biotin-dUTP incorporation into […] using ABTS as substrate incubated for 1 hrs by ELISA analysis.
Series [10] relates to Human immunodeficiency virus 1. The series is described as follows: Anti-HIV activity against NNRTI-resistant HIV-1 harboring RT Y188L mutant infected in human MT4 cells assessed as inhibition of virus-induced cytopathic effect incubated for 5 days by MTT assay. The series is classed as functional, organism-based. As to conditions: Human immunodeficiency virus 1, MT4, 120 h.

The subject of series [11] is Human immunodeficiency virus 1. Kind of series: Anti-HIV activity against NNRTI-resistant HIV-1 harboring RT K103N mutant infected in human MT4 cells assessed as inhibition of virus-induced cytopathic effect incubated for 5 days by MTT assay. In kind it is functional, organism-based. The settings on record: Human immunodeficiency virus 1, MT4, 120 h.
The subject of series [12] is Human immunodeficiency virus 1. Kind of series: Anti-HIV activity against NNRTI-resistant HIV-1 harboring RT E138K mutant infected in human MT4 cells assessed as inhibition of virus-induced cytopathic effect incubated for 5 days by MTT assay. The series is classed as functional, organism-based. As to conditions: Human immunodeficiency virus 1, MT4, 120 h.
The subject of series [13] is Human immunodeficiency virus 1. Kind of series: Anti-HIV activity against NNRTI-resistant HIV-1 harboring RT F227L/V106A double mutant infected in human MT4 cells assessed as inhibition of virus-induced cytopathic effect incubated for 5 days by MTT assay. The series is classed as functional, organism-based. The settings on record: Human immunodeficiency virus 1, MT4, 120 h.

Series [14] in a line: Aqueous solubility of the compound at pH 7.4. The series is classed as physicochemical. The settings on record: aqueous medium.
Series [15] can be described thus: Aqueous solubility of the compound at pH 7.0. The series is classed as physicochemical. The settings on record: aqueous medium.
Series [16] in a line: Aqueous solubility of the compound at pH 2.0. In kind it is physicochemical. The settings on record: aqueous medium.

In brackets after ≈: the same amount, converted by molar mass.

With `Cc1cc(C#N)cc(C)c1Oc1nc(Nc2ccc(C#N)cc2)ncc1C#CC(=O)NCCN1CCN(C(=O)OC(C)(C)C)CC1`, the selectivity ratio in series [1] was found to be 6; in series [6], 1220. The CC50 at 120 h in series [2] was 22400 nM. Moreover, the EC50 in series [3] came to 18.3 nM; in series [4] it was 4010 nM. Besides, the “Ratio EC50” value in [5] came to 219.
`Cc1cc(C#N)cc(C)c1Oc1nc(Nc2ccc(C#N)cc2)ncc1SCC(=O)NCCCN1CCOCC1`: the figures for the selectivity ratio in series [1] and in [6] were 61 and 6930, respectively. Moreover, the EC50 turned out to be 3.41 nM in [3]; 30.9 nM in series [7]; 25.8 nM in series [8]; 386 nM in series [4]; 94.6 nM in [10]; 2.78 nM in series [11]. The EC50 in series [12] turned out to be 38.1 nM; in series [13], 231 nM. Further, the “Ratio EC50” value in series [5] is recorded as 113. Moreover, the IC50 in series [9] turned out to be 113 nM.
For `COC(=O)C1CCC(NC(=O)C#Cc2cnc(Nc3ccc(C#N)cc3)nc2Oc2c(C)cc(C#N)cc2C)CC1` (centres undefined), the selectivity ratio in series [1] came out at 17; in [6] it was 1800. For the same molecule, the CC50 at 120 h in series [2] was 11500 nM. Besides, the EC50 amounted to 6.38 nM in series [3]; 101 nM in [7]; 131 nM in series [8]; 664 nM in series [4]; 171 nM in series [10]; 20.4 nM in series [11]. Also, the EC50 was 26.9 nM in [12] and 3210 nM in [13]. Moreover, in series [5], the “Ratio EC50” value is reported as 104. Also, the IC50 in [9] came to 185 nM.
With `Cc1cc(C#N)cc(C)c1Oc1nc(Nc2ccc(C#N)cc2)ncc1C#CC(=O)NCCOCCO`, the selectivity ratio in series [1] worked out at 11; in series [6], 890. In series [2], the CC50 at 120 h worked out at 9380 nM. The EC50 is 10.5 nM in [3] and 818 nM in series [4]. Moreover, the “Ratio EC50” value in series [5] was 78.
As to `C#CCNC(=O)C#Cc1cnc(Nc2ccc(C#N)cc2)nc1Oc1c(C)cc(C#N)cc1C`, the selectivity ratio in [1] came to 9; in [6], 1140. The CC50 at 120 h in series [2] is 7020 nM. Besides, the EC50 in series [3] worked out at 6.15 nM; in series [7] it was 87.2 nM; in [8] it was 125 nM; in [4], 814 nM; in series [10], 155 nM; in series [11], 15.2 nM. In addition, the EC50 in series [12] was 27.2 nM; in [13], 452 nM. For the same molecule, the “Ratio EC50” value in [5] came out at 132.
As to `COCCNC(=O)C#Cc1cnc(Nc2ccc(C#N)cc2)nc1Oc1c(C)cc(C#N)cc1C`, the selectivity ratio amounted to 379 in series [1] and 6650 in series [6]. In [2], the CC50 at 120 h turned out to be 13600 nM. Further, the EC50 in [3] worked out at 2.04 nM; in series [7], 9.6 nM; in series [8], 6.06 nM; in series [4] it was 35.7 nM; in [10] it was 14.3 nM; in series [11], 2.36 nM. Further, the EC50 was found to be 6.27 nM in series [12] and 61.1 nM in [13]. The solubility in series [14] is 7.84 µg/mL (≈ 16.8 µM); in series [15], 8.27 µg/mL (≈ 17.7 µM); in [16], 22.8 µg/mL (≈ 48.9 µM). In addition, the “Ratio EC50” value in series [5] was found to be 18. In addition, in [9], the IC50 was found to be 19 nM.
As to `C#CCNC(=O)/C=C/c1cnc(Nc2ccc(C#N)cc2)nc1Oc1c(C)cc(C#N)cc1C`, the figures for the selectivity ratio in [1] and in series [6] were 109 and 27100, respectively. The “Ratio EC50” value in [5] is recorded as 248.
As to `Cc1cc(C#N)cc(C)c1Oc1nc(Nc2ccc(C#N)cc2)ncc1C#CC(=O)NCCN1CCOCC1`, the selectivity ratio is above 2 in series [1] and above 2000 in [6]. In [2], the CC50 at 120 h is above 240000 nM. Further, the EC50 in series [3] was determined as 120 nM. Also, the “Ratio EC50” value in series [5] is listed as 957.
Consider `Cc1cc(C#N)cc(C)c1Oc1nc(Nc2ccc(C#N)cc2)ncc1C#CC(=O)NCCN1CCN(S(C)(=O)=O)CC1`, for which, in series [2], the CC50 at 120 h came out at 4890 nM. Besides, the EC50 in series [3] amounted to 11.1 nM; in series [4], 774 nM. Further, the “Ratio EC50” value in series [5] was 70. Also, the selectivity ratio in series [6] was found to be 440.
For `Cc1cc(C#N)cc(C)c1Oc1nc(Nc2ccc(C#N)cc2)nc(N)c1Br` [ETRAVIRINE], the CC50 at 120 h in [2] was above 4590 nM. Moreover, the EC50 in series [8] turned out to be 5.72 nM; in series [4], 23.4 nM; in series [11], 2.78 nM; in series [12], 5.32 nM; in [13], 16.8 nM.
Regarding `O=C1Nc2ccc(Cl)cc2[C@@](C#CC2CC2)(C(F)(F)F)O1` [EFAVIRENZ], the CC50 at 120 h in series [2] was above 6340 nM. Moreover, the EC50 in series [3] came out at 2.36 nM; in series [7], 4.78 nM; in series [8] it was 33.4 nM; in series [4], 136 nM; in series [10], 199 nM; in series [12] it was 3.52 nM. The EC50 in series [13] came out at 154 nM.
With `Cc1cc(C#N)cc(C)c1Oc1nc(Nc2ccc(C#N)cc2)ncc1C#CC(=O)NCCCN1CCOCC1`, the figures for the selectivity ratio in series [1] and in [6] were 17 and 4600, respectively. Moreover, the CC50 at 120 h in [2] amounted to 59200 nM. For the same molecule, the EC50 in series [3] stood at 12.9 nM; in series [4] it was 3440 nM. In series [5], the “Ratio EC50” value is given as 268.
For `CCOC(=O)C#Cc1cnc(Nc2ccc(C#N)cc2)nc1Oc1c(C)cc(C#N)cc1C`, the selectivity ratio was determined as 260 in [1] and 7940 in series [6]. Moreover, the CC50 at 120 h in [2] is 34500 nM. Besides, the EC50 in series [3] was determined as 4.35 nM; in series [7], 13.6 nM; in series [8], 10.9 nM; in series [4], 133 nM; in series [10] it was 10.3 nM; in [11], 5.2 nM. The EC50 was determined as 9.72 nM in [12] and 15.9 nM in series [13]. In addition, the “Ratio EC50” value in series [5] was 31. The IC50 in series [9] was determined as 102 nM.
As to `Cc1cc(C#N)cc(C)c1Oc1nc(Nc2ccc(C#N)cc2)ncc1C#CC(=O)NC1CC1`, the selectivity ratio in series [1] turned out to be 17; in series [6], 1110. In addition, the CC50 at 120 h in series [2] worked out at 5300 nM. In addition, the 50% effective concentration (EC50) amounted to 4.78 nM in series [3]; 36.9 nM in [7]; 111 nM in [8]; 313 nM in series [4]; 236 nM in [10]; 13.3 nM in series [11]. For the same molecule, the EC50 is 14.9 nM in [12] and 376 nM in [13]. Moreover, the “Ratio EC50” value in series [5] came to 66. Moreover, the IC50 in [9] stood at 52 nM.
